The test system of experiment [1] is BXPC-3. Description: Induction of apoptosis in human BXPC-3 cells assessed as increase in cleaved caspase-3 level at 0.25 uM incubated for 30 mins by Western blot analysis. The format is functional, cell-based.
The target in experiment [2] is Transcription factor p65 (Homo sapiens) (UniProt Q04206). Description: Inhibition of p65 phosphorylation in human BXPC-3 cells at 0.5 uM measured within 1 hr by Western blot analysis. The format is cell-based. The conditions noted are these: time hrs <=1. Background: In western blotting, separated proteins are transferred to a membrane and probed.
Experiment [3] addresses Protein kinase C iota type (Homo sapiens) (UniProt P41743). Description: Inhibition of PKClambda phosphorylation in human BXPC-3 cells at 1 uM incubated for 4 hrs by Western blot analysis. The format is cell-based.
The test system of experiment [4] is BXPC-3. Description: Antitumor activity against patient-derived pancreatic cancer cells xenografted in BALB/c mouse model of patient-derived xenograft assessed as reduction in p-PKCdelta protein levels at 6 mg/kg, iv dosed once every 2 days for 18 days by Western blot analysis. The format is functional, organism-based. The conditions noted are these: Homo sapiens, time 18.0 day.

Experiment [5] concerns the target PKC alpha and beta-2 (Homo sapiens) (UniProt P17252+P05771). In words: Inhibition of PKCalpha/beta II phosphorylation at T638/T641 residue in human BXPC-3 cells at 1 uM incubated for 4 hrs by Western blot analysis. The format is cell-based.
Experiment [6] deals with BXPC-3. In words: Induction of apoptosis in human BXPC-3 cells assessed as increase in cleaved caspase-7 level at 0.25 uM incubated for 30 mins by Western blot analysis. The format is functional, cell-based.
For experiment [7], the system named is BXPC-3. Description: Reduction in Mcl1 protein expression in human BXPC-3 cells incubated for 24 hrs by Western blot analysis. The format is functional, cell-based.
For experiment [8], the system named is BXPC-3. In words: Reduction in Bcl-XL protein expression in human BXPC-3 cells incubated for 24 hrs by Western blot analysis. The format is functional, cell-based.
The target of experiment [9] is Inhibitor of nuclear factor kappa-B kinase subunit beta (Homo sapiens) (UniProt O14920). Description: Inhibition of IKKbeta phosphorylation in human BXPC-3 cells at 0.5 uM measured within 1 hr by Western blot analysis. The format is cell-based. The conditions noted are these: time hrs <=1.
Experiment [10] has as its system BXPC-3. Description: Induction of apoptosis in human BXPC-3 cells incubated for 24 hrs by PI and annexin V-FITC staining based flow cytometry. The format is functional, cell-based. (In general: In flow cytometry, cells or beads pass a laser one at a time.)
The test system of experiment [11] is BXPC-3. Description: Antitumor activity against patient-derived pancreatic cancer cells xenografted in BALB/c mouse model of patient-derived xenograft assessed as increase in cleaved caspase-3 levels at 6 mg/kg, iv dosed once every 2 days for 18 days by Western blot analysis. The format is functional, organism-based. The conditions noted are these: Homo sapiens, time 18.0 day. (In general: Xenograft models place foreign cells or tissue in a host animal.)

The target in experiment [12] is NF-kappa-B inhibitor alpha (Homo sapiens) (UniProt P25963). In words: Inhibition of IkappaB-alpha phosphorylation in human BXPC-3 cells at 0.5 uM measured within 1 hr by Western blot analysis. The format is cell-based. The conditions noted are these: time hrs <=1.
Experiment [13] deals with Protein kinase C delta type (Homo sapiens, UniProt Q05655). Description: Inhibition of PKCdelta phosphorylation at T505 residue in human BXPC-3 cells at 1 uM incubated for 4 hrs by Western blot analysis. The format is cell-based.
In experiment [14] the target is Protein kinase C zeta type (Homo sapiens) (UniProt Q05513). In words: Inhibition of PKCzeta phosphorylation in human BXPC-3 cells at 1 uM incubated for 4 hrs by Western blot analysis. The format is cell-based.
For experiment [15], the target named is Protein kinase C iota type/zeta type (Homo sapiens) (UniProt P41743+Q05513). Description: Inhibition of PKCzeta/lambda phosphorylation at T410/T403 residue in human BXPC-3 cells at 1 uM incubated for 4 hrs by Western blot analysis. The format is cell-based.
Experiment [16] concerns the target Protein kinase C beta type (Homo sapiens) (UniProt P05771). In words: Inhibition of PKC(pan)/beta II phosphorylation at S660 residue in human BXPC-3 cells at 1 uM incubated for 4 hrs by Western blot analysis. The format is cell-based.
The test system of experiment [17] is BXPC-3. In words: Antitumor activity against patient-derived pancreatic cancer cells xenografted in BALB/c mouse model of patient-derived xenograft assessed as increase in cleaved caspase- levels at 6 mg/kg, iv dosed once every 2 days for 18 days by Western blot analysis. The format is functional, organism-based. The conditions noted are these: Homo sapiens, time 18.0 day.

Experiment [18] concerns BXPC-3. In words: Reduction in XIAP protein expression in human BXPC-3 cells incubated for 24 hrs by Western blot analysis. The format is functional, cell-based.
Experiment [19] concerns the target Inhibitor of nuclear factor kappa-B kinase subunit alpha (Homo sapiens) (UniProt O15111). In words: Inhibition of IKKalpha phosphorylation in human BXPC-3 cells at 0.5 uM measured within 1 hr by Western blot analysis. The format is cell-based. The conditions noted are these: time hrs <=1.
For experiment [20], the system named is BXPC-3. In words: Antitumor activity against patient-derived pancreatic cancer cells xenografted in BALB/c mouse model of patient-derived xenograft assessed as increased numbers of necrotic cells at 6 mg/kg, iv dosed once every 2 days for 18 days by H and E staining based analysis relative to control. The format is functional, organism-based. The conditions noted are these: Homo sapiens, time 18.0 day.

Experiment [21] deals with Protein kinase C alpha type (Homo sapiens) (UniProt P17252). Description: Inhibition of PKCalpha phosphorylation in human BXPC-3 cells at 1 uM incubated for 4 hrs by Western blot analysis. The format is cell-based.
Experiment [22] deals with BXPC-3. Description: Induction of apoptosis in human BXPC-3 cells assessed as increase in cleaved PARP level at 0.25 uM incubated for 30 mins by Western blot analysis. The format is functional, cell-based.
Experiment [23] has as its system BXPC-3. Description: Induction of apoptosis in human BXPC-3 cells assessed as increase in cleaved caspase-9 level at 0.25 uM incubated for 30 mins by Western blot analysis. The format is functional, cell-based.
Experiment [24] addresses Protein kinase C beta type (Homo sapiens) (UniProt P05771). In words: Inhibition of PKCbeta phosphorylation at S660 residue in human BXPC-3 cells at 1 uM incubated for 4 hrs by Western blot analysis. The format is cell-based.
In experiment [25] the test system is BXPC-3. In words: Reduction in Bcl-2 protein expression in human BXPC-3 cells incubated for 24 hrs by Western blot analysis. The format is functional, cell-based.
Experiment [26] concerns the target Protein kinase C theta type (Homo sapiens, UniProt Q04759). Description: Inhibition of PKCtheta phosphorylation at T538 residue in human BXPC-3 cells at 0.25 uM incubated for 4 hrs by Western blot analysis. The format is cell-based.
The subject of the next experiment is A549. In words: Cytotoxicity in human A549 cells assessed as reduction in cell viability incubated for 24 hrs by CCK8 assay. The format is functional, cell-based. The conditions noted are these: A549, 24 h.
A further experiment relates to RKO. In words: Cytotoxicity in human RKO cells assessed as reduction in cell viability incubated for 24 hrs by CCK8 assay. The format is functional, cell-based.
The test system of the next experiment is NCI-H1299. Description: Cytotoxicity in human NCI-H1299 cells assessed as reduction in cell viability incubated for 24 hrs by CCK8 assay. The format is functional, cell-based. The conditions noted are these: NCI-H1299, 24 h.
The test system of another experiment is ASPC1. Description: Cytotoxicity in human ASPC1 cells assessed as reduction in cell viability incubated for 24 hrs by CCK8 assay. The format is functional, cell-based. The conditions noted are these: ASPC1, 24 h.
A further experiment has as its system PC-9. Description: Cytotoxicity in human PC-9 cells assessed as reduction in cell viability incubated for 24 hrs by CCK8 assay. The conditions noted are these: PC-9, 24 h. The format is functional, cell-based.
The next experiment deals with MGC-803. In words: Cytotoxicity in human MGC-803 cells assessed as reduction in cell viability incubated for 24 hrs by CCK8 assay. The format is functional, cell-based. The conditions noted are these: MGC-803, 24 h.
In a further experiment the test system is NCI-H1975. Description: Cytotoxicity in human NCI-H1975 cells assessed as reduction in cell viability incubated for 24 hrs by CCK8 assay. The format is functional, cell-based. The conditions noted are these: NCI-H1975, 24 h.
For experiment [27], the system named is BXPC-3. Description: Cytotoxicity in human BXPC-3 cells assessed as reduction in cell viability incubated for 24 hrs by CCK8 assay. The format is functional, cell-based. The conditions noted are these: BXPC-3, 24 h.

The source made the active and inactive calls. No cut-off for these calls is given here.

The record followed here is ChEMBL document CHEMBL4665887, “Identification, Structure-Activity Relationships of Marine-Derived Indolocarbazoles, and a Dual PKCθ/δ Inhibitor with Potent Antipancreatic Cancer Efficacy” (J Med Chem, 2020).

In general, IC50 refers to the concentration at which inhibition is half-maximal.

Chain of Protein kinase C beta type (Homo sapiens) (P05771 2-671 limits assumed): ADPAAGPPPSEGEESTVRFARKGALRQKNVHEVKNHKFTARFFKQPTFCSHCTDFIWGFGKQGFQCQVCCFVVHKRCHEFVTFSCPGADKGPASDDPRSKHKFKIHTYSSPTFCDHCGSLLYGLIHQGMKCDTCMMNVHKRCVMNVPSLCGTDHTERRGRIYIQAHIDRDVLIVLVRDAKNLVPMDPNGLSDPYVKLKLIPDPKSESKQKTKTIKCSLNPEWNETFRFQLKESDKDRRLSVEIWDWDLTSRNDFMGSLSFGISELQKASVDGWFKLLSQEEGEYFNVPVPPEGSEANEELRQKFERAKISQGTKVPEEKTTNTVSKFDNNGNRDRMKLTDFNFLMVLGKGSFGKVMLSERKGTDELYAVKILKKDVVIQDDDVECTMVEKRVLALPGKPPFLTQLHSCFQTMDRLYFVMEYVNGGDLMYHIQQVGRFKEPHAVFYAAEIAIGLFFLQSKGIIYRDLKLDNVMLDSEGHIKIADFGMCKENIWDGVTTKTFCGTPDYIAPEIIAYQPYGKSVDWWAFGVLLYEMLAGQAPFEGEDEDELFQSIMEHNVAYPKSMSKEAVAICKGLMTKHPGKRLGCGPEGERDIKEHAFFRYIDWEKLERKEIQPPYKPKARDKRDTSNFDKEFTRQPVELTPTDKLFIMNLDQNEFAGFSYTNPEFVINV
Chain of Protein kinase C theta type (Q04759 whole entry, looked up): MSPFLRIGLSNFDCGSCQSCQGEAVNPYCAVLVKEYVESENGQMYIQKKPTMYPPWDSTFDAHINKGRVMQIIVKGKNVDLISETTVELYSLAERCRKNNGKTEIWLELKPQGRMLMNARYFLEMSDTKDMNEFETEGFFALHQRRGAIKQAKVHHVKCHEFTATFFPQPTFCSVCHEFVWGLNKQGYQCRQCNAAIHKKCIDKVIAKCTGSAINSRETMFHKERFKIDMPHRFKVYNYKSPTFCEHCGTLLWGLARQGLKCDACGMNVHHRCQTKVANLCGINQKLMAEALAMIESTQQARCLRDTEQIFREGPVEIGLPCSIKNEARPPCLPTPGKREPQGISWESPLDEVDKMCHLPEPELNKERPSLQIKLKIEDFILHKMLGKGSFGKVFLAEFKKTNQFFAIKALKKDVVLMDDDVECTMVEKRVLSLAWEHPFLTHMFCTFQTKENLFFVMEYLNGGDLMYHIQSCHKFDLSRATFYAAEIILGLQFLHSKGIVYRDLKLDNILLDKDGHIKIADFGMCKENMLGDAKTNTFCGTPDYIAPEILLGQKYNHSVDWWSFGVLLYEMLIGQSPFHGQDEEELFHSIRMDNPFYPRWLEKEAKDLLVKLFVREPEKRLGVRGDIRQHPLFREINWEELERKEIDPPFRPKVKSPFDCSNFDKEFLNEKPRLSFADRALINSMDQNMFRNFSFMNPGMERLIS
Chain of NF-kappa-B inhibitor alpha (Homo sapiens) (P25963 whole entry): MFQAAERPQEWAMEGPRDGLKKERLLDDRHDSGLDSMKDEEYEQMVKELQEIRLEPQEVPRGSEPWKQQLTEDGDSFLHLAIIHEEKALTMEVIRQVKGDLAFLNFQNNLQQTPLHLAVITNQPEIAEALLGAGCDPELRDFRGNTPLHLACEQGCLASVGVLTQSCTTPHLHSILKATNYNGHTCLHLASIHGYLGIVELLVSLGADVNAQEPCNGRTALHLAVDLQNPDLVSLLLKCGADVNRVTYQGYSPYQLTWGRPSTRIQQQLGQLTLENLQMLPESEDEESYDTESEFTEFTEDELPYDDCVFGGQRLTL
Chain of Protein kinase C iota type (Homo sapiens) (P41743 whole entry): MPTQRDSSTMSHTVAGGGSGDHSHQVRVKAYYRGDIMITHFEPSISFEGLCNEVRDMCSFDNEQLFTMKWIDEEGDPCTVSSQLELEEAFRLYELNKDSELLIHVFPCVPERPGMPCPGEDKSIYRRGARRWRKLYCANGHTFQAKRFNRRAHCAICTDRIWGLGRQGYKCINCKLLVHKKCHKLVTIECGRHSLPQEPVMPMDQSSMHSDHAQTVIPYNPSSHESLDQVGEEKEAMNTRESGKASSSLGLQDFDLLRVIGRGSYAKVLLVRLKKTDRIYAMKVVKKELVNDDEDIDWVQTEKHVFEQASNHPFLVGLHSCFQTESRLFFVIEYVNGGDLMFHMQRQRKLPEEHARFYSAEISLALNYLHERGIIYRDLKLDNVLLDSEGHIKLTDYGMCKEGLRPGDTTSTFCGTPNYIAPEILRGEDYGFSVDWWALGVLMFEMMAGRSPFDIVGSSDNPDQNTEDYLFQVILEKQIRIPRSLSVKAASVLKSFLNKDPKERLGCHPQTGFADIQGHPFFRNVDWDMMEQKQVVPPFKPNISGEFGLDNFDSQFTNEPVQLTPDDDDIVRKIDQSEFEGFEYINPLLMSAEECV
Chain of Protein kinase C iota type/zeta type (Homo sapiens) (P41743 whole entry, looked up): as the sequence (P41743 whole entry) above
Chain of Protein kinase C iota type/zeta type (Homo sapiens) (Q05513 whole entry, looked up): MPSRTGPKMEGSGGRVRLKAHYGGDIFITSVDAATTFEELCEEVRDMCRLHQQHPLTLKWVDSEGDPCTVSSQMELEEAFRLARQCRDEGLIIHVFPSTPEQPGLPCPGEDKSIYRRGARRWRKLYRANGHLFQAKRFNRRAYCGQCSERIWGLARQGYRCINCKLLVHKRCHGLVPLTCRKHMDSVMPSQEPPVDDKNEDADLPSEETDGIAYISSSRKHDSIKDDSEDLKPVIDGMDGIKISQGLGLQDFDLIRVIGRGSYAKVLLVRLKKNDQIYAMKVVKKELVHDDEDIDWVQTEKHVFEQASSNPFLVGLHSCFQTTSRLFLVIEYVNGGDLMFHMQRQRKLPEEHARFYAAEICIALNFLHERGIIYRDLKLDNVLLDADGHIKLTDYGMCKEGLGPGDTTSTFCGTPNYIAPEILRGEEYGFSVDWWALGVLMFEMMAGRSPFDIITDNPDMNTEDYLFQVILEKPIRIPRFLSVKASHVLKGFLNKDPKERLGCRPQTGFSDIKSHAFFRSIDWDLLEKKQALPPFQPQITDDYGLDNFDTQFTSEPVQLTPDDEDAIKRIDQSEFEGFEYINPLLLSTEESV
Chain of Protein kinase C delta type (Q05655 whole entry, looked up): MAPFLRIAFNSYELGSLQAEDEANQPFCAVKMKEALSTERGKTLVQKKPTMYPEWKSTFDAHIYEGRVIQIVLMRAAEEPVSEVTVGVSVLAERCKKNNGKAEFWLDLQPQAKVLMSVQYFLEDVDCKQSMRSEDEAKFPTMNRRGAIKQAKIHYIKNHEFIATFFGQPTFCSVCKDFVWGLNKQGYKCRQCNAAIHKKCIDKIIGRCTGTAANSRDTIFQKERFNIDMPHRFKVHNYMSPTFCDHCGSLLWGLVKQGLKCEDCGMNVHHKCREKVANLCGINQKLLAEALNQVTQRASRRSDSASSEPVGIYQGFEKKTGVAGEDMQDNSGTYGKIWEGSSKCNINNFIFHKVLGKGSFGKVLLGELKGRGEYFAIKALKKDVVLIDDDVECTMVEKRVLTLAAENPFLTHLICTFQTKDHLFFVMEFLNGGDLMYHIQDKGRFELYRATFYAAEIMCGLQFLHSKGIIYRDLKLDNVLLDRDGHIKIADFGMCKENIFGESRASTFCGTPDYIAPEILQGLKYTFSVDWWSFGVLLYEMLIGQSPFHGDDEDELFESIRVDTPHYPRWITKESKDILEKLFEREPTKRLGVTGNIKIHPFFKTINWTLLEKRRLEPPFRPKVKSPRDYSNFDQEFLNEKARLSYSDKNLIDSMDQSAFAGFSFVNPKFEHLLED
Chain of Inhibitor of nuclear factor kappa-B kinase subunit alpha (Homo sapiens) (O15111 whole entry): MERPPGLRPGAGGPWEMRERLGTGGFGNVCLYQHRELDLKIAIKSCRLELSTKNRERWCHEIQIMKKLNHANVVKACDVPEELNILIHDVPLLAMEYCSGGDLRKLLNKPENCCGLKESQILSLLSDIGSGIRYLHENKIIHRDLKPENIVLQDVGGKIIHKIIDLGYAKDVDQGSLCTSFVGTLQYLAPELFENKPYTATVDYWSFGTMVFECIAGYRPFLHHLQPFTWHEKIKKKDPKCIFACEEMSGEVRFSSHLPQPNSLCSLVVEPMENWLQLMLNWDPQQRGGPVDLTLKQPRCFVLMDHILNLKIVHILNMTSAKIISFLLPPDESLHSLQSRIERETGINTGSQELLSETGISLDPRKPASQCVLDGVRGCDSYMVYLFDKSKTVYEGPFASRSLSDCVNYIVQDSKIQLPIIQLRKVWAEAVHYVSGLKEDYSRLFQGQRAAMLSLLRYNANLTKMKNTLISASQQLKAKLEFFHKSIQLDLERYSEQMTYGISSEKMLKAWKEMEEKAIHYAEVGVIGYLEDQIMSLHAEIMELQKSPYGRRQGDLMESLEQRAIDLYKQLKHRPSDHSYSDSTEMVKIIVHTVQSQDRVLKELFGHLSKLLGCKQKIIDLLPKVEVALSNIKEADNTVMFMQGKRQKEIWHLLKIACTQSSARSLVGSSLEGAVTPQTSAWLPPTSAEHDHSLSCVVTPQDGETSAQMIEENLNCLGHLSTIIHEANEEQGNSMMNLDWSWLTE

With `CN[C@@H]1C[C@H]2O[C@@](C)([C@@H]1OC)n1c3ccccc3c3c4c(c5c6ccccc6n2c5c31)C(=O)NC4=O` (stereo in doubt; 15), the outcome in the experiment on BXPC-3 [1], in the experiment on BXPC-3 [4], in the experiment on BXPC-3 [6], in the experiment on BXPC-3 [11], with BXPC-3 [17] and in the experiment with BXPC-3 [20] was Active. For the same compound, the result in the experiment with BXPC-3 [22] and with BXPC-3 [23] was Active. For the same compound, the inhibition result in [2], in [9], in experiment [12], in [13], in experiment [19] and in experiment [26] was “Active” each time. The inhibition entry in [3], in experiment [5], in experiment [14], in experiment [15], in experiment [16] and in [21] was “inactive” each time. In [24], the inhibition entry was “inactive”. In addition, the Activity result in the experiment on BXPC-3 [7], in the experiment with BXPC-3 [8], in the experiment with BXPC-3 [10], in the experiment with BXPC-3 [18] and with BXPC-3 [25] was “Dose-dependent effect” in each case.
With `CN1CCN(c2nc(C3=C(c4c[nH]c5ccccc45)C(=O)NC3=O)c3ccccc3n2)CC1` [SOTRASTAURIN], the IC50 in the experiment with A549, in the experiment on RKO, with NCI-H1299, in the experiment on ASPC1, in the experiment on PC-9 and in the experiment on MGC-803 was over 3.2 µM throughout. For the same compound, the IC50 in the experiment with NCI-H1975 and in the experiment with BXPC-3 [27] was over 3.2 µM throughout.
